Results reported in US12133855B2, “Lipid-like nanocomplexes and uses thereof” (Trustees of Tufts College, priority 2018, dated 2024).

Experiments:
[1] = test system: GFP-HEK cells; experiment: Cas9 mRNA and sgRNA delivery, GFP knockout (GFP− cells); format: cell-based; conditions: Cas9 mRNA and sgRNA 1/1; lipidoid/mRNA=10/1; [mRNA]=0.86 μg mL^−1; 48 h
Experimental: Next, the possibility of using OCholB LNPs to deliver mRNA for genome editing (Cre-loxP and CRISPR/Cas9 systems) purposes was examined. First, Cre mRNA was complexed with OCholB LNPs and tested against HeLa-DsRed cells. The HeLa-DsRed cells express red fluorescent protein, DsRed, only upon Cre protein-mediated recombination. After 24 h of incubation with mRNA/LNPs (lipidoid/mRNA=10/1; [mRNA]=0.86 μg mL^−1), the DsRed^+ cell portions were determined by flow cytometry. […] Then the Cas9 mRNA that expresses a version of Streptococcus pyogenes SF370 Cas9 protein with an N and C terminal nuclear localization signal (NLS) were loaded into LNPs, along with single-guide RNA (sgRNA) that targets a sequence on GFP gene. GFP-HEK cells which steadily express GFP proteins were used a cell model in this case. GFP-cells, indicating a successful Cas9-mediated knockdown of GFP expression, were analyzed using flow cytometry. […] This was also found to be applicable to protein delivery in our previous studies.
In this context, two strategies were tested, i.e., synthesizing new OCholB-tailed lipidoids with single tail rather than full substitution, and adding helper lipids (phospholipids) into fully substituted OCholB LNPs. Single-tailed lipidoids, 75-OCholB-1, 76-OCholB-1 and […] at first following similar protocols as described before and characterized by ESI-MS ([75-OCholB-1+H]^+, 736.55; [76-OCholB-1+H]^+, 734.64; [77-OCholB-1+H]^+, 748.73). Nanoparticles were than fabricated using the same sonication/vortex procedures and the obtained LNPs were measured by DLS (75-OCholB-1, <Dh>=302.6 nm, μ2/I^2=0.30; 76-OCholB-1, <Dh>=294.5 nm, μ2/I^2=0.30; 77-OCholB-1, <Dh>=254.2 nm, μ2/I^2=0.33). […] 69.4%, 72.5% and 68.9% of GFP^+ cells were determined for mRNA/75-OCholB-1, mRNA/76-OCholB-1 and mRNA/77-OCholB-1 treated HeLa cells, respectively. Cre mRNA could also be efficiently delivered into HeLa-DsRed cells, as 87.3% (mRNA/75-OCholB-1), 82.8% (mRNA/76-OCholB-1) and 81.5% (mRNA/77-OCholB-1) of cells were determined to be DsRed^+ after 24 h of exposure (FIG. 14G). […]

[2] = test system: HeLa-DsRed cells; experiment: Internalization mechanism study with endocytosis inhibitors; format: cell-based; conditions: [lipidoid]=6.6 μg mL^−1, [(−30)GFP-Cre]=100 nM; 6 h
Description: In this context, the internalization mechanism of the (−30)GFP-Cre/LNPs complexes was studied at first, by introducing different endocytosis inhibitors, i.e., sucrose (clathrin-mediated endocytosis inhibitor), methyl-β-cyclodextrin (M-β-CD, cholesterol-depleting agent), dynasore (dynamin II inhibitor) and nystatin (caveolin-mediated endocytosis inhibitor), following our previously reported procedures. […] Comparing to other combinatorial library studies, it is clear that even loaded with same cargoes and tested against same cell line, different lipidoids with different chemical structures could be internalized through very distinct pathways. Next, the genome-editing efficiencies of (−30)GFP-Cre/LNPs were determined by flow cytometry after 24 h of incubation (with 8 h of (−30)GFP-Cre/LNPs complex exposure). Three different concentrations of protein/lipidoid complexes (25 nM/1.7 μg mL^−1, 50 nM/3.4 μg mL^−1, and 100 nM/6.6 μg mL^−1) were tested for each lipidoid nanoparticle. […] For example, the DsRed^+ cells were recorded as 10.5%/24.9%/88.9%, 13.5%/55.4%/88.8%, and 27.7%/47.8%/94.7% for (−30)GFP-Cre loaded 75-OCholB, 76-OCholB and 77-OCholB, respectively, at the protein concentration of 25, 50 and 100 nM. […] Then, the cytotoxicity profiles of (−30)GFP-Cre/LNPs, (−30)GFP-Cre/Lpf2k and naked (−30)GFP-Cre at different concentrations against HeLa-DsRed cells (8 h of exposure; (−30)GFP-Cre/LNPs=25 nM/1.7 μg mL^−1, 50 nM/3.4 μg mL^−1, and 100 nM/6.6 μg mL^−1) are measured using MTT assay after 24 h of incubation. […] For (−30)GFP-Cre/75-OCholB treated cells, the viabilities were determined to be 95.5%, 91.8% and 83.1%, at the protein concentration of 25, 50 and 100 nM, respectively; the numbers for (−30)GFP-Cre/76-OCholB and (−30)GFP-Cre/77-OCholB are 97.8%/98.2%/97.2 and 100.9%/96.6%/98.6%. […] Meanwhile, the morphology changes of HeLa-DsRed cell treated with different nanoparticle formulations were studied and the results are shown in FIG. 15E. […]

SMILES | GFP^− cells [1] [%] | internalization efficiency with endocytosis inhibitors [2]
CC(C)CCCC(C)C1CCC2C3CC=C4CC(OC(=O)NCCSSCCOC(=O)CCN(CCC(=O)OCCSSCCNC(=O)OC5CCC6(C)C(=CCC7C6CCC6(C)C(C(C)CCCC(C)C)CCC76)C5)CCN5CCCC5)CCC4(C)C3CCC12C (stereo not drawn) [Lipidoid 76-OCholB] | 7.7 | significantly suppressed by sucrose and dynasore
CCN(CC)CCN(CCC(=O)OCCSSCCNC(=O)OC1CCC2(C)C(=CCC3C2CCC2(C)C(C(C)CCCC(C)C)CCC32)C1)CCC(=O)OCCSSCCNC(=O)OC1CCC2(C)C(=CCC3C2CCC2(C)C(C(C)CCCC(C)C)CCC32)C1 (stereo not drawn) [Lipidoid 75-OCholB] | 6.1 | significantly suppressed by sucrose and dynasore
CC(C)CCCC(C)C1CCC2C3CC=C4CC(OC(=O)NCCSSCCOC(=O)CCN(CCC(=O)OCCSSCCNC(=O)OC5CCC6(C)C(=CCC7C6CCC6(C)C(C(C)CCCC(C)C)CCC76)C5)CCC5CCCN5C)CCC4(C)C3CCC12C (stereo not drawn) [Lipidoid 77-OCholB] | 4.4 | significantly suppressed by sucrose and dynasore
